Data taken from the supplement of paper PMC10883282.
± gives the standard deviation of the averaged measurements.

Legend:
Test in all cases: relative viability vs DMSO control (72 h) (fraction); higher = more viable cells
KHOS-NP = test system: KHOS-NP
How it was run: (§1)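 Sarcoma cell lines were grown in 384-well plates seeded toward 80–90% confluence and exposed 24 h later to serially diluted compound. After 72 h at 37 °C and 5% CO2, with 0.1% DMSO vehicle and a 5 µM positive control on the plates, ATPLite was read. Relative viability, given as percent growth averaged over up to triplicate wells, was rescaled so that 1 is full and 0 is none.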

A204 = test system: A204
How it was run: as §1

HS729 = test system: HS729
How it was run: as §1

HT1080 = test system: HT1080
How it was run: as §1

SW1353 = test system: SW1353
How it was run: as §1

MES-SA = test system: MES-SA
How it was run: as §1

G401 = test system: G401
How it was run: as §1

SYO-1 = test system: SYO-1
How it was run: as §1

SK-LMS-1 = test system: SK-LMS-1
How it was run: as §1

SW872 = test system: SW872
How it was run: as §1

SW684 = test system: SW684
How it was run: as §1

VA-ES-BJ = test system: VA-ES-BJ
How it was run: as §1

## COCCNc1cc(NC(=O)N2CCCc3cc(CN4CCN(C)CC4=O)c(C=O)nc32)ncc1C#N [Roblitinib]
KHOS-NP; 0.00017 µM
  relative viability: 1.05 ± 0.019
KHOS-NP; 0.00051 µM
  relative viability: 1.03 ± 0.029
KHOS-NP; 0.00152 µM
  relative viability: 1.04 ± 0.026
KHOS-NP; 0.00457 µM
  relative viability: 1.04 ± 0.015
KHOS-NP; 0.01372 µM
  relative viability: 1.05 ± 0.037
KHOS-NP; 0.04115 µM
  relative viability: 1.04 ± 0.027
KHOS-NP; 0.1235 µM
  relative viability: 1.06 ± 0.034
KHOS-NP; 0.3704 µM
  relative viability: 1.05 ± 0.017
KHOS-NP; 1.111 µM
  relative viability: 1.05 ± 0.035
KHOS-NP; 3.333 µM
  relative viability: 1.04 ± 0.049
KHOS-NP; 10 µM
  relative viability: 1.02 ± 0.038
A204; 0.00017 µM
  relative viability: 1.05 ± 0.011
A204; 0.00051 µM
  relative viability: 1.09 ± 0.059
A204; 0.00152 µM
  relative viability: 1.03 ± 0.044
A204; 0.00457 µM
  relative viability: 1.08 ± 0.018
A204; 0.01372 µM
  relative viability: 1.06 ± 0.027
A204; 0.04115 µM
  relative viability: 1.07 ± 0.056
A204; 0.1235 µM
  relative viability: 1.04 ± 0.057
A204; 0.3704 µM
  relative viability: 1.02 ± 0.045
A204; 1.111 µM
  relative viability: 1.03 ± 0.061
A204; 3.333 µM
  relative viability: 0.922 ± 0.05
A204; 10 µM
  relative viability: 0.812 ± 0.014
HS729; 0.00017 µM
  relative viability: 0.894 ± 0.071
HS729; 0.00051 µM
  relative viability: 0.906 ± 0.08
HS729; 0.00152 µM
  relative viability: 0.906 ± 0.061
HS729; 0.00457 µM
  relative viability: 0.894 ± 0.057
HS729; 0.01372 µM
  relative viability: 0.891 ± 0.031
HS729; 0.04115 µM
  relative viability: 0.876 ± 0.068
HS729; 0.1235 µM
  relative viability: 0.858 ± 0.05
HS729; 0.3704 µM
  relative viability: 0.858 ± 0.016
HS729; 1.111 µM
  relative viability: 0.849 ± 0.042
HS729; 3.333 µM
  relative viability: 0.892 ± 0.046
HS729; 10 µM
  relative viability: 0.914 ± 0.047
HT1080; 0.00017 µM
  relative viability: 1 ± 0.018
HT1080; 0.00051 µM
  relative viability: 1.04 ± 0.014
HT1080; 0.00152 µM
  relative viability: 0.971 ± 0.013
HT1080; 0.00457 µM
  relative viability: 0.9973 ± 0.0052
HT1080; 0.01372 µM
  relative viability: 0.951 ± 0.034
HT1080; 0.04115 µM
  relative viability: 1.04 ± 0.04
HT1080; 0.1235 µM
  relative viability: 1.05 ± 0.072
HT1080; 0.3704 µM
  relative viability: 1.07 ± 0.033
HT1080; 1.111 µM
  relative viability: 0.952 ± 0.022
HT1080; 3.333 µM
  relative viability: 1.029 ± 0.0021
HT1080; 10 µM
  relative viability: 0.997 ± 0.052
SW1353; 0.00017 µM
  relative viability: 0.959 ± 0.041
SW1353; 0.00051 µM
  relative viability: 0.935 ± 0.031
SW1353; 0.00152 µM
  relative viability: 0.899 ± 0.032
SW1353; 0.00457 µM
  relative viability: 0.95 ± 0.067
SW1353; 0.01372 µM
  relative viability: 0.953 ± 0.032
SW1353; 0.04115 µM
  relative viability: 0.953 ± 0.029
SW1353; 0.1235 µM
  relative viability: 0.942 ± 0.036
SW1353; 0.3704 µM
  relative viability: 0.958 ± 0.033
SW1353; 1.111 µM
  relative viability: 0.922 ± 0.027
SW1353; 3.333 µM
  relative viability: 0.949 ± 0.014
SW1353; 10 µM
  relative viability: 0.961 ± 0.014
MES-SA; 0.00017 µM
  relative viability: 0.912 ± 0.035
MES-SA; 0.00051 µM
  relative viability: 0.892 ± 0.015
MES-SA; 0.00152 µM
  relative viability: 0.878 ± 0.04
MES-SA; 0.00457 µM
  relative viability: 0.885 ± 0.056
MES-SA; 0.01372 µM
  relative viability: 0.883 ± 0.017
MES-SA; 0.04115 µM
  relative viability: 0.884 ± 0.024
MES-SA; 0.1235 µM
  relative viability: 0.879 ± 0.039
MES-SA; 0.3704 µM
  relative viability: 0.889 ± 0.055
MES-SA; 1.111 µM
  relative viability: 0.882 ± 0.034
MES-SA; 3.333 µM
  relative viability: 0.839 ± 0.069
MES-SA; 10 µM
  relative viability: 0.79 ± 0.021
G401; 0.00017 µM
  relative viability: 0.974 ± 0.018
G401; 0.00051 µM
  relative viability: 0.955 ± 0.034
G401; 0.00152 µM
  relative viability: 0.929 ± 0.012
G401; 0.00457 µM
  relative viability: 0.9122 ± 0.0064
G401; 0.01372 µM
  relative viability: 0.943 ± 0.012
G401; 0.04115 µM
  relative viability: 0.93 ± 0.036
G401; 0.1235 µM
  relative viability: 0.96 ± 0.047
G401; 0.3704 µM
  relative viability: 0.967 ± 0.069
G401; 1.111 µM
  relative viability: 0.943 ± 0.033
G401; 3.333 µM
  relative viability: 0.935 ± 0.038
G401; 10 µM
  relative viability: 0.8671 ± 0.0083
SYO-1; 0.00017 µM
  relative viability: 0.933 ± 0.019
SYO-1; 0.00051 µM
  relative viability: 0.931 ± 0.022
SYO-1; 0.00152 µM
  relative viability: 0.9221 ± 0.0044
SYO-1; 0.00457 µM
  relative viability: 0.92 ± 0.03
SYO-1; 0.01372 µM
  relative viability: 0.914 ± 0.049
SYO-1; 0.04115 µM
  relative viability: 0.889 ± 0.022
SYO-1; 0.1235 µM
  relative viability: 0.879 ± 0.036
SYO-1; 0.3704 µM
  relative viability: 0.855 ± 0.059
SYO-1; 1.111 µM
  relative viability: 0.867 ± 0.052
SYO-1; 3.333 µM
  relative viability: 0.845 ± 0.061
SYO-1; 10 µM
  relative viability: 0.87 ± 0.099
SK-LMS-1; 0.00017 µM
  relative viability: 0.941 ± 0.02
SK-LMS-1; 0.00051 µM
  relative viability: 0.942 ± 0.05
SK-LMS-1; 0.00152 µM
  relative viability: 0.932 ± 0.029
SK-LMS-1; 0.00457 µM
  relative viability: 0.957 ± 0.023
SK-LMS-1; 0.01372 µM
  relative viability: 0.938 ± 0.027
SK-LMS-1; 0.04115 µM
  relative viability: 0.988 ± 0.013
SK-LMS-1; 0.1235 µM
  relative viability: 0.921 ± 0.016
SK-LMS-1; 0.3704 µM
  relative viability: 0.995 ± 0.023
SK-LMS-1; 1.111 µM
  relative viability: 0.984 ± 0.044
SK-LMS-1; 3.333 µM
  relative viability: 0.883 ± 0.032
SK-LMS-1; 10 µM
  relative viability: 0.858 ± 0.061
SW872; 0.00017 µM
  relative viability: 0.926 ± 0.028
SW872; 0.00051 µM
  relative viability: 0.924 ± 0.054
SW872; 0.00152 µM
  relative viability: 0.968 ± 0.065
SW872; 0.00457 µM
  relative viability: 0.951 ± 0.052
SW872; 0.01372 µM
  relative viability: 0.939 ± 0.02
SW872; 0.04115 µM
  relative viability: 0.963 ± 0.061
SW872; 0.1235 µM
  relative viability: 0.921 ± 0.015
SW872; 0.3704 µM
  relative viability: 0.977 ± 0.042
SW872; 1.111 µM
  relative viability: 0.9644 ± 0.0077
SW872; 3.333 µM
  relative viability: 0.974 ± 0.047
SW872; 10 µM
  relative viability: 0.988 ± 0.012
SW684; 0.00017 µM
  relative viability: 1.1 ± 0.018
SW684; 0.00051 µM
  relative viability: 1.09 ± 0.054
SW684; 0.00152 µM
  relative viability: 1.08 ± 0.037
SW684; 0.00457 µM
  relative viability: 1.03 ± 0.038
SW684; 0.01372 µM
  relative viability: 1.04 ± 0.069
SW684; 0.04115 µM
  relative viability: 1.05 ± 0.056
SW684; 0.1235 µM
  relative viability: 1.09 ± 0.043
SW684; 0.3704 µM
  relative viability: 1.08 ± 0.018
SW684; 1.111 µM
  relative viability: 1.13 ± 0.082
SW684; 3.333 µM
  relative viability: 1.09 ± 0.068
SW684; 10 µM
  relative viability: 1.02 ± 0.012
VA-ES-BJ; 0.00017 µM
  relative viability: 1.03 ± 0.029
VA-ES-BJ; 0.00051 µM
  relative viability: 1.01 ± 0.026
VA-ES-BJ; 0.00152 µM
  relative viability: 1 ± 0.02
VA-ES-BJ; 0.00457 µM
  relative viability: 1.02 ± 0.017
VA-ES-BJ; 0.01372 µM
  relative viability: 1.02 ± 0.015
VA-ES-BJ; 0.04115 µM
  relative viability: 1.03 ± 0.025
VA-ES-BJ; 0.1235 µM
  relative viability: 1.04 ± 0.011
VA-ES-BJ; 0.3704 µM
  relative viability: 1.03 ± 0.043
VA-ES-BJ; 1.111 µM
  relative viability: 1.04 ± 0.026
VA-ES-BJ; 3.333 µM
  relative viability: 0.999 ± 0.072
VA-ES-BJ; 10 µM
  relative viability: 0.968 ± 0.073
